Assay results published in US11013779B2, “Small molecule therapeutic inhibitors against picornaviruses, caliciviruses, and coronaviruses” (Kansas State University Research Foundation, priority 2016, dated 2021).

Legend:
[1] = biological target: trypsin (Homo sapiens, UniProt P07477); assay type: biochemical
[2] = system: α-chymotrypsin; assay type: biochemical, human
[3] = biological target: plasmin (Homo sapiens, UniProt P00747); assay type: biochemical
[4] = biological target: Factor Xa (Homo sapiens, UniProt P00742); assay type: biochemical
Chain of Factor Xa (P00742 235-488 limits assumed): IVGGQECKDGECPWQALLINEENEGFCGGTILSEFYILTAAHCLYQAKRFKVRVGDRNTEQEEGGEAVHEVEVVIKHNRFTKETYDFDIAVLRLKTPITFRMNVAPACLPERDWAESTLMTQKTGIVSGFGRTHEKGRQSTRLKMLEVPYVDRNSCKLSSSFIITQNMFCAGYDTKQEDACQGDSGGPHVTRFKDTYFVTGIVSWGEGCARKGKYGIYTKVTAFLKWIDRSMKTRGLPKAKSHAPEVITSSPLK
Chain of Factor Xa (P00742 41-179 partner limits assumed): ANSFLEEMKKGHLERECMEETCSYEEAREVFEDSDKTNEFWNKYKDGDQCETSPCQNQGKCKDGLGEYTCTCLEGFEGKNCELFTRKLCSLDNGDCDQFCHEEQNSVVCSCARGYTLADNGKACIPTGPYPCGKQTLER

[5] = biological target: thrombin (Homo sapiens, UniProt P00734); assay type: biochemical

Chain of plasmin (P00747 581-810 limits assumed): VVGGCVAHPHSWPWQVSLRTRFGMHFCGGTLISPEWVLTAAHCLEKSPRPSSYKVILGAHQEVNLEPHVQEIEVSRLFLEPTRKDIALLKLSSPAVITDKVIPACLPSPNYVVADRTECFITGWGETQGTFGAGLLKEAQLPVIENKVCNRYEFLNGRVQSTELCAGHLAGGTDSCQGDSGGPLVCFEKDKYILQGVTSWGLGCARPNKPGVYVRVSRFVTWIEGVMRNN
Chain of plasmin (P00747 97-580 partner limits assumed): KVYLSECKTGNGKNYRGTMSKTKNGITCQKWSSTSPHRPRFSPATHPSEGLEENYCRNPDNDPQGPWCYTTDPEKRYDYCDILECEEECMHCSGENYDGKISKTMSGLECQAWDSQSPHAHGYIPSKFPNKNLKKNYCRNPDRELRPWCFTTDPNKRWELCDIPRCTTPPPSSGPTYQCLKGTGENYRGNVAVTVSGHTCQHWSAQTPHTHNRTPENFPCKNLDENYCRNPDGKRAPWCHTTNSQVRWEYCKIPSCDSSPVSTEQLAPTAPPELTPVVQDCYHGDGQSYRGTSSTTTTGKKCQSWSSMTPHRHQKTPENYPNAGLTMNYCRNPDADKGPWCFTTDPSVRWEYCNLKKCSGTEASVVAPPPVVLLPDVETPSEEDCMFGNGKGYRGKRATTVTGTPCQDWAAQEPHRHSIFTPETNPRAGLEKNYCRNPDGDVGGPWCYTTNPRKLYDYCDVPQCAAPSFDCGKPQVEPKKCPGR

CC(C)C[C@H](NC(=O)OC1CCN(C(=O)OC(C)(C)C)CC1)C(=O)N[C@@H](C[C@@H]1CCNC1=O)C(O)S(=O)(=O)[O-].[Na+] (some centres unmarked) [GC868]
No or minimal inhibition: inhibition of trypsin [1] | inhibition of α-chymotrypsin [2] | inhibition of plasmin [3] | inhibition of Factor Xa [4] | inhibition of thrombin [5]
